Experimental findings from publication PMC9505826, “A Peptide Inhibitor of the Human Cytomegalovirus Core Nuclear Egress Complex” (Pharmaceuticals, 2022) are described below.

For orientation: EC50 means the concentration giving half of the maximal effect.

One series deals with HFF cells. As to the kind of experiment: Neutral Red cytotoxicity assay. It counts as cell-based, human. The following applies: peptides 0.008 µM to 100 µM, refreshed on day 5, read on day 7 of peptide treatment. The method, then: HFF cells were cultivated in 96-well plate with a density of 1.35 × 10^4 cells per well and incubated at 37 °C for 24 h. The cultured HFF cells were treated with peptides, at concentrations ranging from 0.008 µM to 100 µM, and incubated at 37 °C. On day 5, peptides were refreshed in the culture media and incubation was continued until day 7. A sample without compound (DMSO) served as a negative control, and a sample with 1 µM staurosporine (STP) as a positive control. On day seven, neutral red solution (40 µg/mL, Sigma Aldrich, N2889) was added to cultivated cells and incubated at 37 °C for […], followed by addition of destaining solution (ethanol/water/acetic acid, 50:49:1). Fluorescence was read at excitation/emission at 560/630 nm to quantify the uptake of neutral red.

The subject of a further series is HCMV AD169. It counts as cell-based, human cytomegalovirus (HCMV strain AD169). As to conditions: for EC50: HFFs infected with HCMV AD169, MOI 0.1, peptides refreshed at 2, 5 and 7 d p.i., viral genome equivalents in supernatants at 8 d p.i. by qPCR, % of DMSO control, ± standard deviation, at least three independent experiments, read-out: EC50, antiviral effect; for effect on HCMV infection (in words): HFFs infected with HCMV AD169, qPCR of supernatants, concentrations up to 10 µM. How it is done: Primary human foreskin fibroblasts (HFFs) were cultivated in minimal essential medium (MEM). Cell culture media were supplemented with 1× GlutaMAXTM (35050038, Thermo Fisher Scientific), […] gentamicin and 10% fetal bovine serum (FBS, F7524, Sigma Aldrich). All cells were incubated at 37 °C, 5% CO2 and 80% humidity. For infection with human cytomegalovirus (HCMV strain AD169), 2 × 10^5 HFFs were seeded in 12-well plates for 1 day (d) prior to infection at a multiplicity of infection (MOI) of 0.1. After 90 min of viral absorption, cells were incubated with peptides in the culture media media, which was supplemented with 2.5% FBS, 1× GlutaMAX^TM and 10 µg/mL gentamicin, at the indicated concentrations at 37 °C for 4–8 days. Viral supernatants were collected at 4, 6 and 8 days post-infection (d.p.i.).
HFFs were seeded in 12-well plates, used for HCMV infection at a MOI of 0.1 and treated with the indicated concentrations of each peptide. […] The supernatants were centrifuged at 1500× g and digested with proteinase K at 56 °C for 1 h to release viral particles. The reactions were stopped at 95 °C for 5 min. The amount of extracellular viral genomic loads was assessed in […] of each sample by real-time PCR (TaqMan-PCR). Two primers, namely 5′CMV ([…]) and 3′CMV ([…]), which anneal to a sequence within the major immediate early gene region of HCMV, were obtained to amplify and quantify the viral genome. In addition, a FAM/TAMRA-labeled probe was used for detection. The viral load of a sample treated with DMSO only served as a negative control. HCMV genome equivalents from peptide-treated viral supernatants were calculated as % of the negative control.
For orientation: Quantitative PCR measures a nucleic acid by following its amplification.

In series [1] the target is T1, HCMV pUL50–pUL53 interaction (Human cytomegalovirus, UniProt P16791).
T1 construct: Recombinant pUL50 and pUL53 were produced and purified as previously described; made in house
T1 sequence (P16791 1-175): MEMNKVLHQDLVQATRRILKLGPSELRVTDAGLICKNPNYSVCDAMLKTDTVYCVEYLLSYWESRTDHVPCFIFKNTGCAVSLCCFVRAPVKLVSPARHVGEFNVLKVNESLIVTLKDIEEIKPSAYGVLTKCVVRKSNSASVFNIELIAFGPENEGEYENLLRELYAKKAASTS
The series can be described thus: pUL50-pUL53 inhibition assay (plate-based, anti-His-HRP detection). As to conditions: peptide serial dilutions starting at 10 µM. It counts as binding. The method, then: Inhibition assay. Recombinant pUL50 and pUL53 were produced and purified as previously described. High binding Immulon microtiter plates were coated with 100 µL pUL53 (1 µg/mL) in sodium carbonate buffer pH 9.5, overnight at 4 °C. After blocking with 200 µL 1% BSA in 0.1 M phosphate buffer, pH 7.2, for two hours, plates were incubated with 50 µL peptide in serial dilutions, starting at 10 µM, together with 50 µL His-tagged pUL50 (0.78 µg/mL) for two and a half hours. His-tagged pUL50 was detected using anti-His-HRP (Merck, Darmstadt, Germany, 1:100,000). All proteins and antibodies were in 0.1 M phosphate buffer, pH 7.2, containing 0.1% BSA and 0.01% Tween 20. Plates were washed four times with 0.01% Tween 20 in 0.1 M phosphate buffer, pH 7.2, after each incubation step. Plates were developed with o-phenylenediamine (OPD) (1 mg/mL) in the presence of 0.03% H2O2 for approximately 5 min in the dark. After the reaction was stopped with 50 µL 2 M H2SO4, absorbance was read at 492 nm. IC50 values were determined from the % inhibition data using the program GraphPad. Inhibition was calculated according to the following formula:% Inhibition = [1 − (Asample − Ablank1)/(A100% − Ablank2)] × 100 in which “100%” is a sample without inhibitor, “blank1” is a sample without pUL53, and “blank2” is a sample without pUL53 and without inhibitor.

On to `CC[C@H](C)[C@H](NC(=O)[C@H](C)NC(=O)[C@H](CCSC)NC(=O)[C@H](CCCCN)NC(=O)[C@H](CCSC)NC(=O)[C@H](CCSC)NC(=O)[C@H](CC(N)=O)NC(=O)[C@H](CC(C)C)NC(=O)[C@H](Cc1ccc(O)cc1)NC(=O)[C@H](CCCCN)NC(=O)[C@H](CC(C)C)NC(=O)[C@H](CCC(=O)O)NC(=O)[C@H](CC(C)C)NC(=O)[C@H](CCC(=O)O)NC(=O)[C@@H]1CCCN1C(=O)[C@H](Cc1c[nH]cn1)NC(=O)[C@H](CCC(=O)O)NC(=O)[C@H](CCCNC(=N)N)NC(=O)[C@H](Cc1ccccc1)NC(=O)[C@@H](NC(=O)[C@H](CC(=O)O)NC(=O)[C@H](Cc1c[nH]cn1)NC(=O)[C@H](CC(C)C)NC(=O)[C@H](CC(=O)O)NC(=O)[C@H](Cc1c[nH]cn1)NC(=O)[C@H](CC(C)C)NC(=O)[C@@H](NC(=O)[C@H](CC(C)C)NC(C)=O)[C@@H](C)O)[C@@H](C)CC)C(=O)N[C@H](C(N)=O)[C@@H](C)O` [Hook peptide], for which, in the series with HFF cells, the “CC50, cytotoxic effect” value is listed as over 100 µM. In addition, in the series with HCMV AD169, the EC50 is over 10 µM and the “effect on HCMV infection (in words)” value was “no significant effect”.
`CC[C@H](C)[C@H](NC(=O)[C@H](C)NC(=O)[C@H](CCSC)NC(=O)[C@H](CCCCN)NC(=O)[C@H](CCSC)NC(=O)[C@H](CCSC)NC(=O)[C@H](CC(N)=O)NC(=O)[C@H](CC(C)C)NC(=O)[C@H](Cc1ccc(O)cc1)NC(=O)[C@H](CCCCN)NC(=O)[C@H](CC(C)C)NC(=O)[C@H](CCC(=O)O)NC(=O)[C@H](CC(C)C)NC(=O)[C@H](CCC(=O)O)NC(=O)[C@@H]1CCCN1C(=O)[C@H](Cc1c[nH]cn1)NC(=O)[C@H](CCC(=O)O)NC(=O)[C@H](CCCNC(=N)N)NC(=O)[C@H](Cc1ccccc1)NC(=O)[C@@H](NC(=O)[C@H](CC(=O)O)NC(=O)[C@H](Cc1c[nH]cn1)NC(=O)[C@H](CC(C)C)NC(=O)[C@H](CC(=O)O)NC(=O)[C@H](Cc1c[nH]cn1)NC(=O)[C@H](CC(C)C)NC(=O)[C@@H](NC(=O)[C@H](CC(C)C)NC(=O)COCCOCCNC(=O)[C@@H]1CCCN1C(=O)[C@@H]1CCCN1C(=O)[C@H](CCCNC(=N)N)NC(=O)[C@H](CCCNC(=N)N)NC(=O)[C@H](CCCNC(=N)N)NC(=O)[C@H](CCC(N)=O)NC(=O)[C@H](CCCNC(=N)N)NC(=O)[C@H](CCCNC(=N)N)NC(=O)[C@H](CCCCN)NC(=O)[C@H](CCCCN)NC(=O)[C@H](CCCNC(=N)N)NC(=O)CNC(=O)[C@H](Cc1ccc(O)cc1)NC(=O)COCCOCCNC(=O)[C@H](CCCNC(=N)N)NC(=O)[C@H](CCC(N)=O)NC(=O)[C@H](CCCNC(=N)N)NC(=O)[C@H](CCCNC(=N)N)NC(=O)[C@H](CCCCN)NC(=O)[C@H](CCCNC(=N)N)NC(=O)[C@H](CC(C)C)NC(=O)[C@H](CC(C)C)NC(=O)[C@H](CO)NC(=O)[C@H](CCCNC(=N)N)NC(C)=O)[C@@H](C)O)[C@@H](C)CC)C(=O)N[C@H](C(N)=O)[C@@H](C)O` [NLS-CPP-Hook]: the “CC50, cytotoxic effect” value in the series with HFF cells stood at 44.2 ± 6.9 µM. The EC50 in the series with HCMV AD169 was 5.6 ± 0.78 µM.
`CC(=O)N[C@@H](CCCNC(=N)N)C(=O)N[C@@H](CO)C(=O)N[C@@H](CC(C)C)C(=O)N[C@@H](CC(C)C)C(=O)N[C@@H](CCCNC(=N)N)C(=O)N[C@@H](CCCCN)C(=O)N[C@@H](CCCNC(=N)N)C(=O)N[C@@H](CCCNC(=N)N)C(=O)N[C@@H](CCC(N)=O)C(=O)N[C@@H](CCCNC(=N)N)C(=O)NCCOCCOCC(=O)N[C@@H](Cc1ccc(O)cc1)C(=O)NCC(=O)N[C@@H](CCCNC(=N)N)C(=O)N[C@@H](CCCCN)C(=O)N[C@@H](CCCCN)C(=O)N[C@@H](CCCNC(=N)N)C(=O)N[C@@H](CCCNC(=N)N)C(=O)N[C@@H](CCC(N)=O)C(=O)N[C@@H](CCCNC(=N)N)C(=O)N[C@@H](CCCNC(=N)N)C(=O)N[C@@H](CCCNC(=N)N)C(=O)N1CCC[C@H]1C(=O)N1CCC[C@H]1C(N)=O` [NLS-CPP]: the “inhibitory effect on the pUL50-pUL53 interaction (in words)” value in series [1] was “completely inactive”. Besides, the “effect on HCMV infection (in words)” value in the series on HCMV AD169 is on record as “no significant effect”.
